Data published in patent US7173024B2, “Compounds having prolyl oligopeptidase inhibitory activity, methods for their preparation and their use” (Orion Corporation, priority 2001, dated 2007).

These compounds were tested against T1, pig brain prolyl oligopeptidase (Sus scrofa, UniProt P23687) (assay: Inhibition of prolyl oligopeptidase activity of pig brain (Suc-Gly-Pro-AMC, fluorometric)). Conditions: pig brain homogenate supernatant, 30° C., pH 7.0.
T1 construct: The brains were homogenized with a glass-teflon homogenisator; from tissue; host or cells: pig brain (excluding cerebellum and most of the brain stem), 10000 g supernatant of the homogenate
T1 sequence (P23687 whole entry): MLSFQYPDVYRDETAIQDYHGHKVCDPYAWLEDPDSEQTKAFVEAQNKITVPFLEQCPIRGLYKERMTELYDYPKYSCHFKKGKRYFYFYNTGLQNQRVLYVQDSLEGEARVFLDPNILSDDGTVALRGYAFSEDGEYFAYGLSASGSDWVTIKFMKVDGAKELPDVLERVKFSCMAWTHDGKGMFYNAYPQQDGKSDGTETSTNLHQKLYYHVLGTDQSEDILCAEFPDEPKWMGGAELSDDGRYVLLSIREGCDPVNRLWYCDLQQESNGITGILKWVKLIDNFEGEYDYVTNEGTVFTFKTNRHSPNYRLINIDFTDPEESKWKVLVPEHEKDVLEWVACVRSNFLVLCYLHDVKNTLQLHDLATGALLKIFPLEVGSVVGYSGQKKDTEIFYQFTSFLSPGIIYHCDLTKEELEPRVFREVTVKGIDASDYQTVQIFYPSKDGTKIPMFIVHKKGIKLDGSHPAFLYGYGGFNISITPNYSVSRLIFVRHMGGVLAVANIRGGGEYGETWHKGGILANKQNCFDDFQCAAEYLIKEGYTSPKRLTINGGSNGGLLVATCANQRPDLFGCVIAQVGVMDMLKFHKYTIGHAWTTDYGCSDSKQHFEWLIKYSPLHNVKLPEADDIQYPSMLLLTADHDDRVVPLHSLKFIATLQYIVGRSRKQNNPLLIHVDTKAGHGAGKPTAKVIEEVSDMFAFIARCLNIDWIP
Type: biochemical
Protocol: The whole pig brains, excluding cerebellum and most of the brain stem, of three pigs were placed in liquid nitrogen within 30 min from killing and stored at −80° C. until homogenized. The brains were homogenized with a glass-teflon homogenisator in 3 volumes (w/v) of ice-cold 0.1 M sodium-potassium phosphate buffer (pH 7.0) and the homogenates were centrifuged for 20 min at 4° C. at 10000 g. The supernatants were collected, pooled and stored in small aliquots at −80° C. until used. The supernatant was thawn in ice just before activity assay and diluted in a ratio 1:2 with homogenisation buffer (=enzyme preparation).
In the microplate assay procedure, 10 μl of enzyme preparation was preincubated with 460 μl of 0.1 M sodium-potassium phosphate buffer (pH 7.0) and 5 μl of a solution of novel compound dissolved in DMSO and diluted with 0.1 M sodium-potassium phosphate buffer at 30° C. for 30 min. The controls contained 10 μl enzyme preparation and 465 μl of 0.1 M sodium-potassium phosphate buffer (pH 7.0). The reaction was initiated by adding 25 μl of 4 mM Suc-Gly-Pro-AMC (AMC: 7-amido-4-methylcoumarin) dissolved in 0.1 M sodium-potassium phosphate buffer (pH 7.0), and the mixture was incubated at 30° C. for 60 min. The reaction was terminated by adding 500 μl of 1 M sodium acetate buffer (pH 4.2).
Formation of 7-amido-4-methylcoumarin was determined fluorometrically with microplate fluorescence reader (excitation at 360 nm and emission at 460 nm). The final concentration of novel compounds in the assay mixture varied from 10^−12 M to 10^−4 M.
The prolyl oligopeptidase activity was calculated with the following formula in the presence of various concentrations of novel compounds. To reveal the inhibitory potency of the novel compound, activities (% of control) were plotted against the log concentration of the compound, and the IC50 value was determined by non-linear regression utilizing GraphPad Prism software.
Activity (% of control)=a/b×100, where • a=flourescence intensity in the presence of a novel compound • […] a novel compound (control)
With `N#C[C@@H]1CCCN1C(=O)[C@@H]1CCCN1C(=O)CCC(=O)N1CCC[C@H]1C(=O)N1CCC[C@H]1C#N` [Example 21, Succinic acid di-(L-prolyl-2(S)-cyanopyrrolidine)amide] the IC50 was 0.8 nM. For `O=C(CCCC(=O)N1CCC[C@H]1C(=O)N1CCCC1)N1CCCCCC1` [Example 48, Glutaric acid hexamethyleneimine L-prolyl-pyrrolidine amide], the IC50 was 28 nM. Work on `O=C(CO)[C@@H]1CCCN1C(=O)[C@@H]1CCCN1C(=O)c1cccc(C(=O)N2CCC[C@H]2C(=O)N2CCCC2)c1` [Example 22, Isophthalic acid L-prolyl-2(S)-(hydroxyacetyl)pyrrolidine L-prolyl-pyrrolidine amide] yielded an IC50 of 0.4 nM. With `O=C(NC(Cc1ccccc1)C(=O)N1CCCC1)c1cccc(C(=O)NC(Cc2ccccc2)C(=O)N2CCCC2)c1` [Example 50, Isophtalic acid di-(L-phenylalanyl-pyrrolidine)amide] the IC50 was 79 nM. Work on `C[C@H](NC(=O)c1cccc(C(=O)N[C@@H](C)C(=O)N2CCCC2)c1)C(=O)N1CCCC1` [Example 46, Isophthalic acid di-(L-alanyl-pyrrolidine)amide] yielded an IC50 of 87 nM. Work on `O=C([C@@H]1CCCN1C(=O)c1cccc(C(=O)N2CCC[C@H]2C(=O)N2CCCC2)c1)N1CCCC1` [Example 11, Isophthalic acid di-(L-prolyl-pyrrolidine)amide] yielded an IC50 of 26 nM. With `O=C(C1CCCC1)[C@@H]1CCCN1C(=O)c1cccc(C(=O)N2CCC[C@H]2C(=O)C2CCCC2)c1` [Example 41, Isophthalic acid di-(2(S)-(cyclopentanecarbonyl)pyrrolidine)amide] the IC50 was 78 nM. With `N#C[C@@H]1CCCN1C(=O)[C@@H]1CCCN1C(=O)CCC(=O)N1CCCCCC1` [Example 18, Succinic acid hexamethyleneimine L-prolyl-2(S)-cyanopyrrolidine amide] the IC50 was 0.8 nM. Work on `CSCC[C@H](NC(=O)c1cccc(C(=O)N[C@@H](CCSC)C(=O)N2CCCC2)c1)C(=O)N1CCCC1` [Example 47, Isophthalic acid di-(L-methionyl-pyrrolidine)amide] yielded an IC50 of 110 nM.
